Measurements taken from patent publication US20170121344A1 (Siga Technologies, Inc., priority 2009, published 2017).
Where two headings read alike, the source gives them in different places.

System: Dengue-2 (Strain New Guinea C)
Experiment: Viral yield assay against Dengue-2 in Vero cells
Type: cell-based, Dengue virus
Conditions: Dengue virus, read-out: Activity (EC50 in μM) DENV-2
How it was run: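 Vero cells were infected with dengue-2 at MOI 0.1, treated with compound (DMSO control), and kept at 37° C. They were harvested 48 hours post infection and yield was titered on Vero cells. EC50 came from the yield curve, and the other serotypes were run in a similar way.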

[1] = DENV2, viral yield assay, Vero cells, MOI 0.1, 48 hours post infection

| Structure (SMILES) | EC50 [1] [µM] | EC50 (DENV2, Vero, 48 h) [µM] |
| --- | --- | --- |
| Nc1c(C(=O)Nc2nccs2)sc2nc3c(cc12)CCCCC3 [Compound 366, 3-amino-N-(thiazol-2-yl)-6,7,8,9-tetrahydro-5H-cyclohepta [b]thieno[3,2-e]pyridine-2-carboxamide] | < 5 | – |
| Cc1ccc2c(N)c(C(=O)Nc3cccc(C(F)(F)F)c3)sc2n1 [Compound 367, 3-amino-6-methyl-N-(3-(trifluoromethyl)phenyl)thieno[2,3-b] pyridine-2-carboxamide] | < 5 | – |
| Nc1c(C(=O)Nc2cccc(C(F)(F)F)c2)sc2nc3c(cc12)CCCCCC3 [Compound 370, 3-amino-N-(3-(trifluoromethyl)phenyl)-5,6,7,8,9,10-hexahydrocycloocta[b] thieno[3,2-e]pyridine-2-carboxamide] | < 5 | – |
| Nc1c(C(=O)Nc2ccccc2OC(F)(F)F)sc2nc3c(cc12)CCCCC3 [Compound 371, 3-amino-N-(2-(trifluoromethoxy)phenyl)-6,7,8,9-tetrahydro-5H-cyclohepta[b]thieno [3,2-e]pyridine-2-carboxamide] | < 5 | – |
| Nc1c(C(=O)Nc2ccccc2C(F)(F)F)sc2nc3c(cc12)CCCCC3 [Compound 372, 3-amino-N-(2-(trifluoromethyl)phenyl)-6,7,8,9-tetrahydro-5H-cyclohepta[b]thieno [3,2-e]pyridine-2-carboxamide] | < 5 | – |
| Nc1c(C(=O)Nc2cccc3ccccc23)sc2nc3c(cc12)CCCCC3 [Compound 374, 3-amino-N-(naphthalen-1-yl)-6,7,8,9-tetrahydro-5H-cyclohepta[b]thieno[3,2-e] pyridine-2-carboxamide] | < 5 | – |
| N#Cc1c(N)nc2sc(C(=O)Nc3ccccc3)c(N)c2c1-c1ccco1 [Compound 375, 3,6-diamino-5-cyano-4-(2-furyl)-N-phenyl-thieno[2,3-b]pyridine-2-carboxamide] | 5 to 25 | – |
| O=C(Nc1ccc(Cl)cc1)c1sc2ncccc2c1OCc1ccc(Cl)c(Cl)c1 [Compound 376, N-(4-chlorophenyl)-3-[(3,4-dichlorophenyl)methoxy]thieno[2,3-b] pyridine-2-carboxamide] | 5 to 25 | – |
| O=C(Nc1cccc(C(F)(F)F)c1)c1sc2ncccc2c1OCc1ccc(Cl)c(Cl)c1 [Compound 377, 3-[(3,4-dichlorophenyl)methoxy]-N-[3-(trifluoromethyl)phenyl]thieno[2,3-b] pyridine-2-carboxamide] | < 5 | – |
| O=C(Nc1ccc(OC(F)(F)F)cc1)c1sc2ncccc2c1OCc1ccc(Cl)c(Cl)c1 [Compound 378, 3-[(3,4-dichlorophenyl)methoxy]-N-[4-(trifluoromethoxy)phenyl]thieno[2,3-b] pyridine-2-carboxamide] | < 5 | – |
| O=C(Nc1ccccc1)c1sc2ncccc2c1OCc1ccc(Cl)c(Cl)c1 [Compound 379, 3-[(3,4-dichlorophenyl)methoxy]-N-phenyl-thieno[2,3-b]pyridine-2-carboxamide] | < 5 | – |
| O=C(Nc1cccc(Cl)c1)c1sc2ncccc2c1OCc1ccc(Cl)c(Cl)c1 [Compound 380, N-(3-chlorophenyl)-3-[(3,4-dichlorophenyl)methoxy]thieno[2,3-b] pyridine-2-carboxamide] | < 5 | – |
| O=C(Nc1cccc(Cl)c1)c1sc2ncccc2c1O [Compound 381, N-(3-chlorophenyl)-3-hydroxy-thieno[2,3-b]pyridine-2-carboxamide] | 5 to 25 | – |
| O=C(Nc1ccccc1Cl)c1sc2ncccc2c1O [Compound 382, N-(2-chlorophenyl)-3-hydroxy-thieno[2,3-b]pyridine-2-carboxamide] | 5 to 25 | – |
| N#Cc1c(N)nc2sc(C(=O)Nc3nc(-c4ccccc4)cs3)c(N)c2c1-c1ccco1 [Compound 383, 3,6-diamino-5-cyano-4-(2-furyl)-N-(4-phenylthiazol-2-yl)thieno[2,3-b]pyridine-2-carboxamide] | < 5 | – |
| O=C(Nc1nccs1)c1sc2nc(N3CCOCC3)cc(-c3ccccc3)c2c1O [Compound 384, 3-hydroxy-6-morpholino-4-phenyl-N-thiazol-2-yl-thieno[2,3-b]pyridine-2-carboxamide] | 5 to 25 | – |
| COc1ccccc1NC(=O)c1sc2nc(N3CCOCC3)cc(-c3ccccc3)c2c1O [Compound 385, 3-hydroxy-N-(2-methoxyphenyl)-6-morpholino-4-phenyl-thieno[2,3-b] pyridine-2-carboxamide] | 5 to 25 | – |
| Cc1c(C(=O)Nc2nccs2)sc2nc(-c3cccs3)cc(C(F)(F)F)c12 [Compound 386, 3-methyl-N-thiazol-2-yl-6-(2-thienyl)-4-(trifluoromethyl)thieno[2,3-b]pyridine-2-carboxamide] | – | < 5 |
| CC1=NN(C(=O)c2sc3nc(-c4cccs4)cc(C(F)(F)F)c3c2C)C(O)(C(F)(F)F)C1 (centres unmarked) [Compound 387, [5-hydroxy-3-methyl-5-(trifluoromethyl)-4H-pyrazol-1-yl]-[3-methyl-6-(2-thienyl)-4-(trifluoromethyl)thieno[2,3-b]pyridin-2-yl]methanone] | 5 to 25 | – |
| Cc1c(C(=O)NC(C)(C)C)sc2nc(-c3cccs3)cc(C(F)(F)F)c12 [Compound 388, N-tert-butyl-3-methyl-6-(2-thienyl)-4-(trifluoromethyl)thieno[2,3-b]pyridine-2-carboxamide] | < 5 | – |
| Cc1cc(C)c2c(C)c(C(=O)NCc3ccco3)sc2n1 [Compound 389, N-(2-furylmethyl)-3,4,6-trimethyl-thieno [2,3-b]pyridine-2-carboxamide] | 5 to 25 | – |

| Structure (SMILES) | EC50 [1] [µM] | EC50 (DENV2, Vero, 48 h) [µM] |
| --- | --- | --- |
| CC(=O)c1cnc2sc(C(=O)N(CCc3ccccc3)Cc3cccs3)c(C)c2c1 [Compound 390, 5-acetyl-3-methyl-N-phenethyl-N-(2-thienylmethyl)thieno[2,3-b]pyridine-2-carboxamide] | < 5 | – |
| CC(=O)c1cnc2sc(C(=O)Nc3cccc(F)c3)c(C)c2c1 [Compound 391, 5-acetyl-N-(3-fluorophenyl)-3-methyl-thieno[2,3-b]pyridine-2-carboxamide] | < 5 | – |
| Cc1cc(C)c2c(C)c(C(=O)Nc3nc4ccccc4s3)sc2n1 [Compound 392, N-(1,3-benzothiazol-2-yl)-3,4,6-trimethyl-thieno[2,3-b]pyridine-2-carboxamide] | 5 to 25 | – |
| Cc1cc(C)c2c(C)c(C(=O)Nc3ccc(NC(=O)C4CC4)cc3)sc2n1 [Compound 393, N-[4-(cyclopropanecarbonylamino)phenyl]-3,4,6-trimethyl-thieno[2,3-b]pyridine-2-carboxamide] | 5 to 25 | – |
| Cc1cc(C)c2c(C)c(C(=O)NC(C)C3CC3)sc2n1 (centres unmarked) [Compound 394, N-(1-cyclopropylethyl)-3,4,6-trimethyl-thieno[2,3-b]pyridine-2-carboxamide] | < 5 | – |
| Cc1cc(C)c2c(C)c(C(=O)NCC(C)C)sc2n1 [Compound 395, N-isobutyl-3,4,6-trimethyl-thieno[2,3-b] pyridine-2-carboxamide] | 5 to 25 | – |
| Cc1cc(C)c2c(C)c(C(=O)Nc3ccc4c(c3)OCCO4)sc2n1 [Compound 396, N-(2,3-dihydro-1,4-benzodioxin-6-yl)-3,4,6-trimethyl-thieno[2,3-b]pyridine-2-carboxamide] | 5 to 25 | – |
| Cc1c(C(=O)Nc2ccc(F)cc2)sc2ncc(C(=O)Nc3ccc(F)cc3)cc12 [Compound 397, N2,N5-bis(4-fluorophenyl)-3-methyl-thieno[2,3-b]pyridine-2,5-dicarboxamide] | < 5 | – |
| Cc1cc(C)c2c(C)c(C(=O)N3c4ccccc4CC3C)sc2n1 (centres unmarked) [Compound 398, (2-methylindolin-1-yl)-(3,4,6-trimethyl-thieno[2,3-b]pyridin-2-yl)methanone] | 5 to 25 | – |
| Cc1c(C(=O)N(C)C2CCCC(C)C2)sc2nc(C(F)(F)F)ccc12 (centres unmarked) [Compound 399, N,3-dimethyl-N-(3-methylcyclohexyl)-6-(trifluoromethyl)thieno[2,3-b]pyridine-2-carboxamide] | < 5 | – |
| CC(=O)c1cnc2sc(C(=O)NCc3ccc(CN(C)C)cc3)c(C)c2c1 [Compound 400] | < 5 | – |
| COc1cc(NC(=O)c2sc3nc(C)cc(C)c3c2C)cc(OC)c1OC [Compound 401, 3,4,6-trimethyl-N-(3,4,5-trimethoxyphenyl)thieno[2,3-b]pyridine-2-carboxamide] | > 25 | – |
| CCNC(=O)c1cccc(NC(=O)c2sc3nc(C)cc(C)c3c2C)c1 [Compound 402, N-[3-(ethylcarbamoyl)phenyl]-3,4,6-trimethyl-thieno[2,3-b]pyridine-2-carboxamide] | > 25 | – |
| Cc1cc(C)c2c(C)c(C(=O)Nc3ccccc3O)sc2n1 [Compound 403, N-(2-hydroxyphenyl)-3,4,6-trimethyl-thieno[2,3-b]pyridine-2-carboxamide] | < 5 | – |
| Cc1cc(C)c2c(C)c(C(=O)N3CCN(c4cnccn4)CC3)sc2n1 [Compound 404] | < 5 | – |
| Cc1cc(C)c2c(C)c(C(=O)NCCC(=O)N3CCCC3)sc2n1 [Compound 405, 3,4,6-trimethyl-N-(3-oxo-3-pyrrolidin-1-yl-propyl)thieno[2,3-b]pyridine-2-carboxamide] | < 5 | – |
| CCN(C(=O)c1sc2nc(C)cc(C(F)(F)F)c2c1C)c1ccccc1 [Compound 406] | < 5 | – |
| COc1ccc(OC)c(CN2CCN(C(=O)c3sc4nc(C)cc(C)c4c3C)CC2)c1 [Compound 407, [4-[(2,5-dimethoxyphenyl)methyl)piperazin-1-yl]-(3,4,6-trimethylthieno [2,3-b]pyridin-2-yl)methanone] | > 25 | – |
| Cc1cc(C)c2c(C)c(C(=O)N3CCc4ccccc4C3)sc2n1 [Compound 408, 3,4-dihydro-1H-isoquinolin-2-yl-(3,4,6-trimethylthieno[2,3-b]pyridin-2-yl) methanone] | > 25 | – |
| COc1ccccc1C(C)N(C)C(=O)c1sc2nc(C)cc(C)c2c1C (centres unmarked) [Compound 409, N-[1-(2-methoxyphenyl)ethyl]-N,3,4,6-tetramethyl-thieno[2,3-b]pyridine-2-carboxamide] | > 25 | – |
